# Measured values: patent US20220378773A1, “METHODS FOR TREATING LEUKEMIA AND USE OF A LEUKEMIC STEM CELL SIGNATURE TO PREDICT CLINICAL SENSITIVITY TO THERAPIES” (CELGENE CORPORATION, priority 2019, published 2022)
# Tested on: AML graft (CD34, CD15, CD14, CD11b)
# Assay: Cell surface marker phenotype of AML graft after treatment
# Format: in vivo, NOD/SCID mice
# Description: After treatment finished, cells were harvested from both injected right femur (RF) and non-injected bone marrow (BM, including left femur, 2 tibias), and stained with human antibodies to assess the engraftment levels of AML. Antibodies used for staining included: Mouse anti-human CD45-APC, CD15-FITC, CD34-APC7, CD38-PC7 (BD Biosciences, USA), CD14-PE, CD33-PC5 (Beckman Coulter, USA), CD19-V450, CD19-AF700, CD11b-APC7, CD34-BV421 (BD Biosciences, USA), and propidium iodide (PI; Invitrogen, USA).
# With the observation that Compound D has dramatic effect against AML in mice, the question of whether Compound D targets primitive leukemic cells and induces differentiation was investigated next because AML cells are immature blasts with differentiation and maturation blockage in patients. Samples that were focused on were the samples that still had clear residual leukemia cells in the mice following Compound D treatment. […] The majority of cells harvested from the mice transplanted with patient sample 120093 were CD34+ primitive cells lacking in CD15 expression. […] CD11b is also a myeloid differentiation marker and was increased on patient 150250 grafted cells in parallel with increased expression of another myeloid differentiation marker CD15. […] The changes of CD15, CD14 and CD34 positive populations are summarized in FIGS. 12C-12E and 3 different patterns after Compound D treatment are apparent: increase, decrease, or no change of the populations in AML, graft. The samples with reduction of CD34+ primitive cells and increase of CD15+ and/or CD14+ cells are the samples responding well to Compound D (such as patient samples 110555, 110500, and 120093). […] Secondary transplantation may be performed to determine whether Compound D targeted the LSCs with self-renewal capacity.
compound,measurement,setting,value
"O=C1CCC(N2Cc3cc(CNC(=O)C(F)(F)c4ccc(Cl)cc4)ccc3C2=O)C(=O)N1 (centres unmarked) [Compound D, 2-(4-chlorophenyl)-N-((2-(2,6-dioxopiperidin-3-yl)-1-oxoisoindolin-5-yl)methyl)-2,2-difluoroacetamide]",expression of myeloid differentiation marker CD15,3 representative samples,clear increased expression
same,CD11b+ leukemia cells,Patient 130826,decreased CD11b+ leukemia cells
same,expression of monocytic cell marker CD14,graft of patient 120287,induced expression of monocytic cell marker CD14
same,CD11b on grafted cells,patient 150250,increased
same,CD14+ cells,patient sample 100474,only eliminated CD14+ cells
same,CD15 expression,patient sample 120093,induced CD15 expression
same,CD34+ cell population,patient sample 120093,reduced CD34+ cell population
same,CD34+ cells in the graft,patient samples 100348 and 130826,reduced CD34+ cells
